Assay results reported in patent US9216968B2, “Heterocyclic derivative and pharmaceutical drug” (NIPPON SHINYAKU CO., LTD., priority 2011, dated 2015).
Counter-ions that a name gives are not always drawn.

Assays:
human mPGES-1 = human mPGES-1 (Homo sapiens (Human), UniProt O14684); test: mPGES-1 inhibiting activity (microsome fractions, PGE2 by HTRF); type: biochemical; settings: microsomes from CHO-K1 cells transfected with human mPGES-1; PGH2 1 μM, 4° C., 60 seconds; read-out: mPGES-1 Inhibition IC50
Sequence of human mPGES-1 (O14684 whole entry): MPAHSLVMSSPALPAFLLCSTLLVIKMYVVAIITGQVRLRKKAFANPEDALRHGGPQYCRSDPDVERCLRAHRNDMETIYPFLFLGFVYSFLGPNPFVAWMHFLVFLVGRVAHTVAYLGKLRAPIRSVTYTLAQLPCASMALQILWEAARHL
Outline: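 PGE2 formation read by HTRF after 60 s at 4 °C with 1 μM PGH2 substrate, following 20 min compound preincubation (1% DMSO) with human mPGES-1 microsomes from transfected CHO-K1 cells. Buffer: potassium phosphate, reduced glutathione, pH 7.4; IC50 from activity relative to enzyme-free blank.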

A549 cells = test: Inhibition of PGE2 production in A549 cell (IL-1β stimulated); type: cell-based, human; settings: Homo sapiens, A549, 24 h, IL-1β 5 ng/well, PGE2 in culture medium
Outline: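 A549 cells preincubated 60 min with compound in RPMI/3% FBS (final DMSO 0.10), then stimulated with IL-1β (5 ng/well) for 24 h at 37 °C. PGE2 measured by HTRF and PGF2α by EIA in medium; IC50 from inhibition relative to stimulated minus unstimulated production.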

Row | SMILES | IC50 (human mPGES-1) | IC50 (A549 cells)
1 | Cc1c(Cl)cccc1NC(=O)c1cc(NC(=O)c2ccccc2C(F)(F)F)cc2[nH]c([C@@H]3CCCN3)nc12 [Example 71, N-(3-Chloro-2-methylphenyl)-2-[(2S)-pyrrolidin-2-yl]-6-({[2-(trifluoromethyl)phenyl]carbonyl}amino)-1H-benzimidazole-4-carboxamide dihydrochloride] | 0.0331 µM | 0.227 µM
2 | Cc1c(Cl)cccc1NC(=O)c1cc(NC(=O)c2ccccc2C(F)(F)F)cc2[nH]c([C@@H]3CCCN3C)nc12 [Example 72, N-(3-Chloro-2-methylphenyl)-2-[(2S)-1-methylpyrrolidin-2-yl]-6-({[2-(trifluoromethyl)phenyl]carbonyl}amino)-1H-benzimidazole-4-carboxamide] | 0.0098 µM | 0.06 µM
3 | CC(=O)N1CCC[C@H]1c1nc2c(C(=O)Nc3cccc(Cl)c3C)cc(NC(=O)c3ccccc3C(F)(F)F)cc2[nH]1 [Example 73, 2-[(2S)-1-Acetylpyrrolidin-2-yl]-N-(3-chloro-2-methylphenyl)-6-({[2-(trifluoromethyl)phenyl]carbonyl}amino)-1H-benzimidazole-4-carboxamide] | 0.0186 µM | 0.0764 µM
4 | COCCOCc1nc2c(C(=O)Nc3cccc(Cl)c3C)cc(NC(=O)c3ccccc3C(F)(F)F)cc2[nH]1 [Example 74, N-(3-Chloro-2-methylphenyl)-2-[(2-methoxyethoxy)methyl]-6-({[2-(trifluoromethyl)phenyl]carbonyl}amino)-1H-benzimidazole-4-carboxamide hydrochloride] | 0.0713 µM | 0.0104 µM
5 | CC(C)(C)c1nc2c(C(=O)NCc3ncccc3C(F)(F)F)cc(NC(=O)c3ccccc3C(F)(F)F)cc2[nH]1 [Example 77, 2-tert-Butyl-6-({[2-(trifluoromethyl)phenyl]carbonyl}amino)-N-{[3-(trifluoromethyl)pyridin-2-yl]methyl}-1H-benzimidazole-4-carboxamide dihydrochloride] | 0.0017 µM | 0.0329 µM
6 | CCOCCc1nc2c(C(=O)Nc3cccc(Cl)c3C)cc(NC(=O)c3ccccc3C(F)(F)F)cc2[nH]1 [Example 78, N-(3-Chloro-2-methylphenyl)-2-(2-ethoxyethyl)-6-({[2-(trifluoromethyl)phenyl]carbonyl}amino)-1H-benzimidazole-4-carboxamide hydrochloride] | 0.0968 µM | 0.177 µM
7 | CCOCc1nc2c(C(=O)Nc3cccc(Cl)c3C)cc(NC(=O)c3ccccc3C(F)(F)F)cc2[nH]1 [Example 79, N-(3-Chloro-2-methylphenyl)-2-(ethoxymethyl)-6-({[2-(trifluoromethyl)phenyl]carbonyl}amino)-1H-benzimidazole-4-carboxamide hydrochloride] | 0.015 µM | 0.285 µM
8 | CCOCc1nc2c(C(=O)NCc3ncccc3C(F)(F)F)cc(NC(=O)c3ccccc3C(F)(F)F)cc2[nH]1 [Example 80, 2-(Ethoxymethyl)-6-({[2-(trifluoromethyl)phenyl]carbonyl}amino)-N-{[3-(trifluoromethyl)pyridin-2-yl]methyl}-1H-benzimidazole-4-carboxamide dihydrochloride] | 0.0294 µM | 1.25 µM
9 | COCCc1nc2c(C(=O)Nc3cccc(Cl)c3C)cc(NC(=O)c3ccccc3C(F)(F)F)cc2[nH]1 [Example 81, N-(3-Chloro-2-methylphenyl)-2-(2-methoxyethyl)-6-({[2-(trifluoromethyl)phenyl]carbonyl}amino)-1H-benzimidazole-4-carboxamide hydrochloride] | 0.005 µM | 0.405 µM
10 | Cc1c(Cl)cccc1NC(=O)c1cc(NC(=O)c2cc(Cl)ccc2Cl)cc2[nH]c(C(C)(C)C)nc12 [Example 87, 2-tert-Butyl-N-(3-chloro-2-methylphenyl)-6-{[(2,5-dichlorophenyl)carbonyl]amino}-1H-benzimidazole-4-carboxamide hydrochloride] | 0.0057 µM | 0.0069 µM
11 | Cc1c(Cl)cccc1NC(=O)c1cc(NC(=O)c2ccccc2C(F)(F)F)cc2[nH]c(C3(C(F)(F)F)CC3)nc12 [Example 89, N-(3-Chloro-2-methylphenyl)-2-[1-(trifluoromethyl)cyclopropyl]-6-({[2-(trifluoromethyl)phenyl]carbonyl}amino)-1H-benzimidazole-4-carboxamide] | 0.0012 µM | 0.0021 µM
12 | COCc1nc2c(C(=O)Nc3cccc(Cl)c3C)cc(NC(=O)c3ccccc3C(F)(F)F)cc2n1C [Example 90, N-(3-Chloro-2-methylphenyl)-2-(methoxymethyl)-1-methyl-6-({[2-(trifluoromethyl)phenyl]carbonyl}amino)-1H-benzimidazole-4-carboxamide] | 0.118 µM | 0.348 µM
13 | COCc1nc2c(C(=O)Nc3cccc(Cl)c3C)cc(NC(=O)c3c(F)cccc3Cl)cc2[nH]1 [Example 92, 6-{[(2-Chloro-6-fluorophenyl)carbonyl]amino}-N-(3-chloro-2-methylphenyl)-2-(methoxymethyl)-1H-benzimidazole-4-carboxamide hydrochloride] | 0.0067 µM | 0.0322 µM
14 | COCc1nc2c(C(=O)Nc3cccc(Cl)c3C)cc(NC(=O)c3ccc(F)cc3Cl)cc2[nH]1 [Example 93, 6-{[(2-Chloro-4-fluorophenyl)carbonyl]amino}-N-(3-chloro-2-methylphenyl)-2-methoxymethyl-1H-benzimidazole-4-carboxamide hydrochloride] | 0.0042 µM | 0.153 µM
15 | COCc1nc2c(C(=O)Nc3cccc(Cl)c3C)cc(NC(=O)c3cc(F)ccc3Cl)cc2[nH]1 [Example 94, 6-{[(2-Chloro-5-fluorophenyl)carbonyl]amino}-N-(3-chloro-2-methylphenyl)-2-(methoxymethyl)-1H-benzimidazole-4-carboxamide hydrochloride] | 0.0091 µM | 0.182 µM
16 | COCc1nc2c(C(=O)Nc3cccc(Cl)c3C)cc(NC(=O)c3ccccc3Cl)cc2[nH]1 [Example 95, N-(3-Chloro-2-methylphenyl)-6-{[(2-chlorophenyl)carbonyl]amino}-2-(methoxymethyl)-1H-benzimidazole-4-carboxamide hydrochloride] | 0.0051 µM | 0.105 µM
17 | COCc1nc2c(C(=O)Nc3cccc(Cl)c3C)cc(NC(=O)c3cccnc3Cl)cc2[nH]1 [Example 96, N-(3-Chloro-2-methylphenyl)-6-{[(2-chloropyridin-3-yl)carbonyl]amino}-2-(methoxymethyl)-1H-benzimidazole-4-carboxamide hydrochloride] | 0.034 µM | 0.126 µM

Results, then the molecule that gave them:

Row | IC50 (human mPGES-1) | IC50 (A549 cells) | SMILES
18 | 0.0317 µM | 0.0197 µM | COCC(C)(C)c1nc2c(C(=O)Nc3cccc(Cl)c3C)cc(NC(=O)c3ccccc3C(F)(F)F)cc2[nH]1 [Example 75, N-(3-Chloro-2-methylphenyl)-2-(1-methoxy-2-methylpropan-2-yl)-6-({[2-(trifluoromethyl)phenyl]carbonyl}amino)-1H-benzimidazole-4-carboxamide hydrochloride]
19 | 0.0002 µM | 0.0055 µM | Cc1c(Cl)cccc1NC(=O)c1cc(NC(=O)c2ccccc2C(F)(F)F)cc2[nH]c(C(C)(C)C)nc12 [Example 76, 2-tert-Butyl-N-(3-chloro-2-methylphenyl)-6-({[2-(trifluoromethyl)phenyl]carbonyl}amino)-1H-benzimidazole-4-carboxamide hydrochloride]
20 | 0.0004 µM | 0.0063 µM | Cc1c(Cl)cccc1NC(=O)c1cc(NC(=O)c2ccccc2C(F)(F)F)cc2[nH]c(CC(C)(C)C)nc12 [Example 82, N-(3-Chloro-2-methylphenyl)-2-(2,2-dimethylpropyl)-6-({[2-(trifluoromethyl)phenyl]carbonyl}amino)-1H-benzimidazole-4-carboxamide hydrochloride]
21 | 0.0098 µM | 0.0165 µM | Cc1c(Cl)cccc1NC(=O)c1cc(NC(=O)c2ccccc2C(F)(F)F)cc2[nH]c(C3CC3)nc12 [Example 83, N-(3-Chloro-2-methylphenyl)-2-cyclopropyl-6-({[2-(trifluoromethyl)phenyl]carbonyl}amino)-1H-benzimidazole-4-carboxamide hydrochloride]
22 | 0.0008 µM | 0.0065 µM | CCCC(C)(C)c1nc2c(C(=O)Nc3cccc(Cl)c3C)cc(NC(=O)c3ccccc3C(F)(F)F)cc2[nH]1 [Example 84, N-(3-Chloro-2-methylphenyl)-2-(2-methylpentan-2-yl)-6-({[2-(trifluoromethyl)phenyl]carbonyl}amino)-1H-benzimidazole-4-carboxamide hydrochloride]
23 | 0.0005 µM | 0.0037 µM | Cc1c(Cl)cccc1NC(=O)c1cc(NC(=O)c2ccccc2C(F)(F)F)cc2[nH]c(C3(C)CC3)nc12 [Example 85, N-(3-chloro-2-methylphenyl)-2-(1-methylcyclopropyl)-6-({[2-(trifluoromethyl)phenyl]carbonyl}amino)-1H-benzimidazole-4-carboxamide]
24 | 0.001 µM | 0.0051 µM | Cc1ccc(NC(=O)c2cc(NC(=O)c3ccccc3C(F)(F)F)cc3[nH]c(C(C)(C)C)nc23)cc1Cl [Example 86, 2-tert-Butyl-N-(3-chloro-4-methylphenyl)-6-({[2-(trifluoromethyl)phenyl]carbonyl}amino)-1H-benzimidazole-4-carboxamide hydrochloride]
25 | 0.0151 µM | 0.0092 µM | Cc1ccc(NC(=O)c2cc(NC(=O)c3cc(Cl)ccc3Cl)cc3[nH]c(C(C)(C)C)nc23)cc1Cl [Example 88, 2-tert-Butyl-N-(3-chloro-4-methylphenyl)-6-{[(2,5-dichlorophenyl)carbonyl]amino}-1H-benzimidazole-4-carboxamide hydrochloride]
